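Five concentrations, 48 hours, 96-well plates. GI50 = concentration required for 50% inhibition of growth.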 Active and inactive are the calls of the source. Cut-off read from the data, not from the text of the source: active = GI50 up to about 1.1 µM and inactive = higher.
Assays:
Assay in all cases: DTP human tumour cell line panel, 48 h
[1] = test system: HOP-62
[2] = test system: NCI-H226
[3] = test system: COLO 205
[4] = test system: MDA-MB-435
[5] = test system: OVCAR-5
[6] = test system: HCT-116
[7] = test system: NCI-H460
[8] = test system: CAKI-1
[9] = test system: UACC-257
[10] = test system: SF-295
[11] = test system: SK-MEL-5
[12] = test system: SR
[13] = test system: K562
[14] = test system: PC-3
[15] = test system: HCC 2998
[16] = test system: BT-549
[17] = test system: MDA-N
[18] = test system: SNB-75
[19] = test system: M14
[20] = test system: RXF 393
[21] = test system: EKVX
[22] = test system: Malme-3M
[23] = test system: HT-29
[24] = test system: SK-MEL-2
[25] = test system: MOLT-4
[26] = test system: MDA-MB-231
[27] = test system: IGROV-1
[28] = test system: SK-MEL-28
[29] = test system: HCT-15
[30] = test system: OVCAR-4
[31] = test system: SF-268
[32] = test system: 786-0
[33] = test system: NCI-H522
[34] = test system: Hs-578T
[35] = test system: RPMI-8226
[36] = test system: T47D
[37] = test system: SK-OV-3
[38] = test system: SF-539
[39] = test system: SW-620
[40] = test system: HOP-92
[41] = test system: TK-10
[42] = test system: SNB-19
[43] = test system: OVCAR-8
[44] = test system: MCF7
[45] = test system: ACHN
[46] = test system: NCI/ADR-RES
[47] = test system: SN12C
[48] = test system: UO-31
[49] = test system: HL-60
[50] = test system: NCI-H23
[51] = test system: DU-145
[52] = test system: KM12
[53] = test system: OVCAR-3
[54] = test system: A549
[55] = test system: U-251
[56] = test system: CCRF-CEM
[57] = test system: UACC-62
[58] = test system: A498
[59] = test system: LOX IMVI

Measured: GI50

Cc1ccc(-c2n[nH]c(=O)n2/N=C\c2ccccc2O)cc1
inactive: [1] > 100 µM | [2] > 100 µM | [3] > 100 µM | [4] > 100 µM | [5] > 100 µM | [6] > 100 µM | [7] > 100 µM | [8] > 100 µM | [9] > 100 µM | [10] > 100 µM | [11] > 100 µM | [12] > 100 µM | [13] > 100 µM | [14] > 100 µM | [15] > 100 µM | [16] > 100 µM | [17] > 100 µM | [18] > 100 µM | [19] > 100 µM | [20] 57.8 µM | [21] > 100 µM | [22] > 100 µM | [23] > 100 µM | [24] > 100 µM | [25] > 100 µM | [26] 68.5 µM | [27] > 100 µM | [28] > 100 µM | [30] > 100 µM | [31] > 100 µM | [32] > 100 µM | [33] > 100 µM | [34] 51.4 µM | [35] > 100 µM | [36] 94 µM | [37] 81.3 µM | [38] > 100 µM | [39] > 100 µM | [40] > 100 µM | [41] > 100 µM | [42] > 100 µM | [43] > 100 µM | [44] 55.6 µM | [45] > 100 µM | [46] > 100 µM | [47] > 100 µM | [48] > 100 µM | [49] > 100 µM | [50] > 100 µM | [51] > 100 µM | [52] > 100 µM | [53] > 100 µM | [54] > 100 µM | [55] > 100 µM | [56] > 100 µM
> 100 µM: [29]

CSc1ccc(/C=C2\N=C(c3ccccc3)N(/N=C/c3cc4cc(C)ccc4nc3Cl)C2=O)cc1
23.3 µM: [29]
inactive: [1] 33.2 µM | [3] 16.7 µM | [4] 8.15 µM | [5] 22.9 µM | [6] 13.6 µM | [7] 20.7 µM | [8] 18.1 µM | [9] 19.4 µM | [10] 17.9 µM | [11] 16.1 µM | [12] 12.1 µM | [13] 22 µM | [14] 16.9 µM | [15] 16 µM | [16] 22.8 µM | [17] 14.4 µM | [18] 21.2 µM | [19] 16.7 µM | [21] 32.4 µM | [23] 23.1 µM | [24] 16.8 µM | [25] 13.5 µM | [26] 19.6 µM | [27] 14.3 µM | [28] 18.2 µM | [30] 17.1 µM | [31] 19.1 µM | [57] 15.6 µM | [32] 17.9 µM | [34] 23.1 µM | [35] 27.6 µM | [36] 22.9 µM | [37] 24 µM | [38] 16.5 µM | [39] 27.4 µM | [40] 17.9 µM | [41] 16.9 µM | [42] 16.7 µM | [43] 16.1 µM | [44] 11.4 µM | [58] 17.5 µM | [45] 16.3 µM | [46] 19.1 µM | [47] 17.7 µM | [48] 15 µM | [49] 22 µM | [59] 18.6 µM | [51] 17.8 µM | [52] 14.3 µM | [53] 19.5 µM | [54] 19.5 µM | [55] 20 µM | [56] 12 µM

O=C(c1ccccc1)C1C(C(=O)c2ccccc2)C(c2ccccc2)N(c2ccccc2)C1c1ccccc1 (stereo not drawn)
inactive: [1] > 100 µM | [2] > 100 µM | [3] > 100 µM | [4] > 100 µM | [5] > 100 µM | [6] > 100 µM | [7] > 100 µM | [8] > 100 µM | [9] > 100 µM | [10] > 100 µM | [11] > 100 µM | [12] > 100 µM | [13] 46.7 µM | [14] > 100 µM | [15] > 100 µM | [16] > 100 µM | [17] > 100 µM | [19] > 100 µM | [20] > 100 µM | [21] > 100 µM | [22] > 100 µM | [24] > 100 µM | [25] > 100 µM | [26] > 100 µM | [27] > 100 µM | [28] > 100 µM | [31] > 100 µM | [57] > 100 µM | [32] > 100 µM | [33] > 100 µM | [34] 48 µM | [35] 21.2 µM | [36] > 100 µM | [38] > 100 µM | [39] > 100 µM | [40] > 100 µM | [41] > 100 µM | [42] > 100 µM | [43] > 100 µM | [44] > 100 µM | [45] > 100 µM | [46] > 100 µM | [47] > 100 µM | [48] > 100 µM | [49] 5.48 µM | [50] > 100 µM | [59] > 100 µM | [51] > 100 µM | [53] > 100 µM | [54] > 100 µM | [55] > 100 µM | [56] > 100 µM
> 100 µM: [29]

— ChEMBL document CHEMBL1201862, “PubChem BioAssay data set” (2004)
